# Measurements: ChEMBL document CHEMBL5705899 (Biochem J, 2014)
# Activity calls are given as the source filed them. The calls are words filed in the database; no cut-off is given here.
# Key:
# [1] = biological target: Dual specificity protein kinase CLK2 (Homo sapiens) (UniProt P49760); assay: Inhibition of human CLK2 at 1 uM using RBER-GSK3 as substrate in presence of 33P-ATP by ProQinase assay
# [2] = biological target: Serine/threonine-protein kinase TBK1 (Homo sapiens) (UniProt Q9UHD2); assay: Inhibition of recombinant human N-terminal GST-tagged TBK1 (1 to 729 residues) expressed in baculovirus infected Sf21 cells assessed as remaining activity at 1 uM using KKKKERLLDDRHDSGLDSMKDEE as substrate incubated for 30 mins in presence of [gamma-33P]ATP by filter binding method relative to control
# [3] = biological target: Serine/threonine-protein kinase Nek2 (Homo sapiens) (UniProt P51955); assay: Inhibition of human NEK2 at 1 uM using RB-CTF as substrate in presence of 33P-ATP by ProQinase assay
# Serine/threonine-protein kinase Nek2 (Homo sapiens), sequence (P51955 whole entry): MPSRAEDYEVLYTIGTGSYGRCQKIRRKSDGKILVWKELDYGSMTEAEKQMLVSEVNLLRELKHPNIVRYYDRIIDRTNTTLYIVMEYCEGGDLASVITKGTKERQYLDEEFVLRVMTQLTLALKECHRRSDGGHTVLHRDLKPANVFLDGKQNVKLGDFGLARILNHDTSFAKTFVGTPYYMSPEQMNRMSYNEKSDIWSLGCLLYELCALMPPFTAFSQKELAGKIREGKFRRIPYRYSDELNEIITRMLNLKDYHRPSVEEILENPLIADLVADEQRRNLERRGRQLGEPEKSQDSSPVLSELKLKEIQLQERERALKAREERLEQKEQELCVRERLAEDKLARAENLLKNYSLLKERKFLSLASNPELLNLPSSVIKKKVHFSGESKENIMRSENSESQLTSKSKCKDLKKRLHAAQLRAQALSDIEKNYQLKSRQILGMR
# [4] = biological target: DNA-dependent protein kinase catalytic subunit (Homo sapiens) (UniProt P78527); assay: Inhibition of human DNPK1 at 1 uM using RBER-GSK3 as substrate in presence of 33P-ATP by ProQinase assay
# [5] = biological target: Tyrosine-protein kinase SYK (Homo sapiens) (UniProt P43405); assay: Inhibition of human SYK (1 to 635 residues) at 1 uM using polyEY as substrate in presence of 33P-ATP by ProQinase assay
# [6] = biological target: Mitogen-activated protein kinase kinase kinase kinase 4 (Homo sapiens) (UniProt O95819); assay: Inhibition of human MAP4K4 at 1 uM using casein as substrate in presence of 33P-ATP by ProQinase assay
# Mitogen-activated protein kinase kinase kinase kinase 4 (Homo sapiens), sequence (O95819 2-1239 limits assumed): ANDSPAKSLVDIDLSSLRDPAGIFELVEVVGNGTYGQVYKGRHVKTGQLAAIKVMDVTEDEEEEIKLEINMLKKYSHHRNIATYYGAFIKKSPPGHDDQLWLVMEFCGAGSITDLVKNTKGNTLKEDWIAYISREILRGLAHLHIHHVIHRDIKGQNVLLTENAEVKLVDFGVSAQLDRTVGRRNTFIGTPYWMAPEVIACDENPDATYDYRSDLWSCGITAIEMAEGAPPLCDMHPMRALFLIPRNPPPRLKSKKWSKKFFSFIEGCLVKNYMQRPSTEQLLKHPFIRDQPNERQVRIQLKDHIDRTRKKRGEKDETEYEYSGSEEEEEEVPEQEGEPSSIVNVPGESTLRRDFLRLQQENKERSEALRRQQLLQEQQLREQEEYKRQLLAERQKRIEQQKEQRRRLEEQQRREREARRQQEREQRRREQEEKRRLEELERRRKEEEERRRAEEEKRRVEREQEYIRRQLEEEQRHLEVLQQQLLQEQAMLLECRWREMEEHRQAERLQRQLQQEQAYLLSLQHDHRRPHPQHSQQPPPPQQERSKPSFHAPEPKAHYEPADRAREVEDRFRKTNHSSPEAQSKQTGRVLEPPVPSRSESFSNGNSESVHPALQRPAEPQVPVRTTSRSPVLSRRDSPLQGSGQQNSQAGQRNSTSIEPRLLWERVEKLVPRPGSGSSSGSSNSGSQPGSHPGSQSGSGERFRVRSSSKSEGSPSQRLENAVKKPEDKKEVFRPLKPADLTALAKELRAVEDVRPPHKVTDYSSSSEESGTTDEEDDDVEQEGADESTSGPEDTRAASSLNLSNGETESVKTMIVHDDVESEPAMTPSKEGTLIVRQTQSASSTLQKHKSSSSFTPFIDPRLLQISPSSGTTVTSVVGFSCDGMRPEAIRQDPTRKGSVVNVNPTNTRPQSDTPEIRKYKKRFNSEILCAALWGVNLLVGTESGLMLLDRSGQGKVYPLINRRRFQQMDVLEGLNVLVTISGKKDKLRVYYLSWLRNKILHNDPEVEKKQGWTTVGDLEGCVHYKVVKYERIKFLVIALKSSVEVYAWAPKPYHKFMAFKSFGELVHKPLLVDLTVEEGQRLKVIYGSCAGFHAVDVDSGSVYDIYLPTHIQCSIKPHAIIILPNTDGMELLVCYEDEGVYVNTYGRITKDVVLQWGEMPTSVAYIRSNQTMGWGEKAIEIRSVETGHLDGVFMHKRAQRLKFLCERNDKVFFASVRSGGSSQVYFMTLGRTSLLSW
# [7] = biological target: cAMP-dependent protein kinase catalytic subunit alpha (Homo sapiens) (UniProt P17612); assay: Inhibition of human PKACalpha at 1 uM using bio-4xCHKT as substrate in presence of 33P-ATP by ProQinase assay
# [8] = biological target: Protein kinase C alpha type (Homo sapiens) (UniProt P17252); assay: Inhibition of recombinant human N-terminal GST-tagged PKCA (2 to 351 residues) expressed in Escherichia coli assessed as remaining activity at 1 uM using kKemptide as substrate incubated for 30 mins in presence of [gamma-33P]ATP by filter binding method relative to control
# [9] = biological target: Inhibitor of nuclear factor kappa-B kinase subunit beta (Homo sapiens) (UniProt O14920); assay: Inhibition of recombinant human N-terminal His6-tagged IKKbeta (1 to 736 residues) expressed in baculovirus infected Sf21 cells assessed as remaining activity at 1 uM using LDDRHDSGLDSMKDEEY as substrate incubated for 30 mins in presence of [gamma-33P]ATP by filter binding method relative to control
# Inhibitor of nuclear factor kappa-B kinase subunit beta (Homo sapiens), sequence (O14920 whole entry, the tested form may be a part): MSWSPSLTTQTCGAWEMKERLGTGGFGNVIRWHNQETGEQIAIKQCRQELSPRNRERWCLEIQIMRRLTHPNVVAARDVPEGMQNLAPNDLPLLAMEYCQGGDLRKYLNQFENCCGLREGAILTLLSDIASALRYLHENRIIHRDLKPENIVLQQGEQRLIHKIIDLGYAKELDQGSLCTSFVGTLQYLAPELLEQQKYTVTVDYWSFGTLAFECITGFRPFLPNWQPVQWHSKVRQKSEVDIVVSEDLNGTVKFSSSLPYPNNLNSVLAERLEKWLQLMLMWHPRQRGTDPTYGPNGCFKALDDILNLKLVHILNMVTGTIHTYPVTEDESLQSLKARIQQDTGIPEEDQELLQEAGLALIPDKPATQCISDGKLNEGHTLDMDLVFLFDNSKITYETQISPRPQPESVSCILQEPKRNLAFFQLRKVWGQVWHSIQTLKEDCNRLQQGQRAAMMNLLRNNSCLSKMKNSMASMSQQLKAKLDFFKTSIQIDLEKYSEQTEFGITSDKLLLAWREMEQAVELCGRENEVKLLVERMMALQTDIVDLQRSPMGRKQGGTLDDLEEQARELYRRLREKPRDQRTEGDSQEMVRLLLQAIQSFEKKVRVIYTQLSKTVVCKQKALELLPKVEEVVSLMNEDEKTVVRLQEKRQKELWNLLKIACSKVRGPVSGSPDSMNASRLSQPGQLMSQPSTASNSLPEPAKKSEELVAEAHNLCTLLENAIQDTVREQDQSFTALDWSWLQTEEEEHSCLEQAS
# [10] = biological target: Aurora kinase B (Homo sapiens) (UniProt Q96GD4); assay: Inhibition of human AuroraB at 1 uM using bio-4xCHKT as substrate in presence of 33P-ATP by ProQinase assay
# [11] = biological target: Phosphatidylinositol 5-phosphate 4-kinase type-2 alpha (Homo sapiens) (UniProt P48426); assay: Inhibition of recombinant human N-terminal His6-tagged PIP5K2alpha (1 to 406 residues) expressed in Escherichia coli at 1 uM using diC8 PI(5)P as substrate incubated for 40 mins by ADP-Glo assay
# [12] = biological target: Tyrosine-protein kinase CSK (Homo sapiens) (UniProt P41240); assay: Inhibition of recombinant human N-terminal GST-tagged CSK (1 to 450 residues) expressed in Escherichia coli assessed as remaining activity at 1 uM Cdc2 peptide as substrate incubated for 30 mins in presence of [gamma-33P]ATP by filter binding method relative to control
# [13] = biological target: Serine/threonine-protein kinase MARK2 (Homo sapiens) (UniProt Q7KZI7); assay: Inhibition of human MARK2 at 1 uM using RBER-CHKtide as substrate in presence of 33P-ATP by ProQinase assay
# Serine/threonine-protein kinase MARK2 (Homo sapiens), sequence (Q7KZI7 whole entry, the tested form may be a part): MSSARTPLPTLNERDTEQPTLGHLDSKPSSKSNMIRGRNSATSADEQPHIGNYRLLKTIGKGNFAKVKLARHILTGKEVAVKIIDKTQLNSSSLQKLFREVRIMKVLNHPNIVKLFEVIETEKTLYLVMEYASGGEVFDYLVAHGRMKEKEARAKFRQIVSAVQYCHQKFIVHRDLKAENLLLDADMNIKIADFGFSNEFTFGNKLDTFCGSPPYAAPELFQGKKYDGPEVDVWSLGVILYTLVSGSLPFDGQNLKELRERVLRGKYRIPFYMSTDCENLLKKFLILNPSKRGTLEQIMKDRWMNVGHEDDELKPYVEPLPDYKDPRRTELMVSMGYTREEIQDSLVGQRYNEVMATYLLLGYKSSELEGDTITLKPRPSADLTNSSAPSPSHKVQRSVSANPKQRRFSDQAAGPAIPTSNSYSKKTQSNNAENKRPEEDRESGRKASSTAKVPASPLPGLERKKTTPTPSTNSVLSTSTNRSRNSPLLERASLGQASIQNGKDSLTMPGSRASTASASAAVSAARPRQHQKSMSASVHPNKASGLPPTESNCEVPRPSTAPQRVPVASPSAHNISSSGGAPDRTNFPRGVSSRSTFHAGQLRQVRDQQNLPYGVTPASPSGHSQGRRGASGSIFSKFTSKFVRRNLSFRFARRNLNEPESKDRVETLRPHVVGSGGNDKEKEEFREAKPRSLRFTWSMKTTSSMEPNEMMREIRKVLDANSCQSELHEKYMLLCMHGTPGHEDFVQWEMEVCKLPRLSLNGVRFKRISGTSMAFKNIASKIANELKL
# [14] = biological target: Serine/threonine-protein kinase 26 (Homo sapiens) (UniProt Q9P289); assay: Inhibition of recombinant human N-terminal His6-tagged MST4 (1 to 416 residues) expressed in baculovirus infected Sf21 cells assessed as remaining activity at 1 uM using MBP as substrate incubated for 30 mins in presence of [gamma-33P]ATP by filter binding method relative to control
# [15] = biological target: Tyrosine-protein kinase FRK (Homo sapiens) (UniProt P42685); assay: Inhibition of human FRK at 1 uM using PolyEY as substrate in presence of 33P-ATP by ProQinase assay
# Tyrosine-protein kinase FRK (Homo sapiens), sequence (P42685 whole entry): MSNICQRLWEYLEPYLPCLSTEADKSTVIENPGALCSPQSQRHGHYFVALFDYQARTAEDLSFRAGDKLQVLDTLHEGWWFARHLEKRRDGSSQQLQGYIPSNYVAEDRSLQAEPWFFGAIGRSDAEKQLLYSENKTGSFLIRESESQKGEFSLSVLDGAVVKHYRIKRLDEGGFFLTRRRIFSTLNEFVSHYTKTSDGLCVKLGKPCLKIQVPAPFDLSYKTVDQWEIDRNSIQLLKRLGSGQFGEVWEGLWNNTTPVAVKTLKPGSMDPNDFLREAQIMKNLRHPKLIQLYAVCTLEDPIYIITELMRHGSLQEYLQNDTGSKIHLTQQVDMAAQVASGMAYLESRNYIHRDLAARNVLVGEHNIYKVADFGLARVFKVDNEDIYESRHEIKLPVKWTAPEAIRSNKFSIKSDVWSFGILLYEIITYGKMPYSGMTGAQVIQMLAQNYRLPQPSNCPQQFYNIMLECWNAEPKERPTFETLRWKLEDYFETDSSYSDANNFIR
# [16] = biological target: CDK4/Cyclin D3 (Homo sapiens) (UniProt P11802+P30281); assay: Inhibition of human CDK4/CycD3 at 1 uM using RBER-CHKtide as substrate in presence of 33P-ATP by ProQinase assay; type: protein-complex assay
# [17] = biological target: Serine/threonine-protein kinase Nek1 (Homo sapiens) (UniProt Q96PY6); assay: Inhibition of human NEK1 at 1 uM using RBER-CHKtide as substrate in presence of 33P-ATP by ProQinase assay
# [18] = biological target: Mitogen-activated protein kinase 9 (Homo sapiens) (UniProt P45984); assay: Inhibition of human JNK2 at 1 uM using ATF2 as substrate in presence of 33P-ATP by ProQinase assay
# [19] = biological target: Phosphorylase b kinase gamma catalytic chain, skeletal muscle/heart isoform (Homo sapiens) (UniProt Q16816); assay: Inhibition of human PHKG1 at 1 uM using 3xChocktide-PKC as substrate in presence of 33P-ATP by ProQinase assay
# [20] = biological target: Tyrosine-protein kinase JAK3 (Homo sapiens) (UniProt P52333); assay: Inhibition of human JAK3 at 1 uM using poly(Ala,Glu,Lys,Tyr) as substrate in presence of 33P-ATP by ProQinase assay
# [21] = biological target: Cyclin-dependent kinase 4/cyclin D1 (Homo sapiens) (UniProt P11802+P24385); assay: Inhibition of human CDK4/CyclinD1 at 1 uM using RBER-CHKtide, as substrate in presence of 33P-ATP by ProQinase assay; type: protein-complex assay
# [22] = biological target: Misshapen-like kinase 1 (Homo sapiens) (UniProt Q8N4C8); assay: Inhibition of human MINK1 at 1 uM using RBER-CHKtide as substrate in presence of 33P-ATP by ProQinase assay
# [23] = biological target: Tyrosine-protein kinase receptor TYRO3 (Homo sapiens) (UniProt Q06418); assay: Inhibition of human TYRO3 at 1 uM using PolyEY as substrate in presence of 33P-ATP by ProQinase assay
# [24] = biological target: Protein kinase C gamma type (Homo sapiens) (UniProt P05129); assay: Inhibition of recombinant human N-terminal GST-tagged PKCgamma (1 to 697 residues) expressed in baculovirus infected Sf21 cells assessed as remaining activity at 1 uM using Histone H1 as substrate incubated for 30 mins in presence of [gamma-33P]ATP by filter binding method relative to control
# [25] = biological target: Mitogen-activated protein kinase 11 (Homo sapiens) (UniProt Q15759); assay: Inhibition of human P38beta at 1 uM using ATF2 as substrate in presence of 33P-ATP by ProQinase assay
# Dual specificity protein kinase CLK2 (Homo sapiens), sequence (P49760 whole entry, looked up, the tested form may be a part): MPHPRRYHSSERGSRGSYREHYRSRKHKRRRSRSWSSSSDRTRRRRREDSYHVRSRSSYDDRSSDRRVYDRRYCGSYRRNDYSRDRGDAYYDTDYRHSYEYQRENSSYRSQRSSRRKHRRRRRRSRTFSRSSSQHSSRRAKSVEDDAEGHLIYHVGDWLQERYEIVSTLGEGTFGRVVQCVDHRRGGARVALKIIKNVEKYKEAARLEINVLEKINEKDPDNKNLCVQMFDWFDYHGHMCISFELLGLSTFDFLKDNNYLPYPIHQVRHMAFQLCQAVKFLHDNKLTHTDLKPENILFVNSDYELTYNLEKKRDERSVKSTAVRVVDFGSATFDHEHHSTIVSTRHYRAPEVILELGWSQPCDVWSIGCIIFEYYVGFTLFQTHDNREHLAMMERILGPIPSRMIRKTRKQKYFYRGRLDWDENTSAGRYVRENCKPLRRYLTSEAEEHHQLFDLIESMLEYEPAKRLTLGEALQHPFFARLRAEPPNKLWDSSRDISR
structure (smiles),measurement,setting,value
CC(C)(O)CNc1ncc(-c2ccnc(Nc3ccnc(Cl)c3)n2)c(CC2CC2)n1,inhibition,[1],inactive
same,Activity,[2],125%
same,inhibition,[3],inactive
same,inhibition,[4],inactive
same,inhibition,[5],inactive
same,inhibition,[6],inactive
same,inhibition,[7],inactive
same,Activity,[8],112%
same,Activity,[9],106%
same,inhibition,[10],inactive
same,inhibition,[11],inactive
same,Activity,[12],132%
same,inhibition,[13],inactive
same,Activity,[14],108%
same,inhibition,[15],inactive
same,inhibition,[16],inactive
same,inhibition,[17],inactive
same,inhibition,[18],inactive
same,inhibition,[19],inactive
same,inhibition,[20],inactive
same,inhibition,[21],inactive
same,inhibition,[22],inactive
same,inhibition,[23],inactive
same,Activity,[24],111%
same,inhibition,[25],inactive
